Reference: patent publication US20190134129A1, “METHOD FOR ALLEVIATING ULTRAVIOLET DAMAGE WITH ETHYL ACETATE-EXTRACTED PRODUCT OF SEDUM FORMOSANUM” (Sinotai Oncology Associate., Ltd., priority 2017, published 2019)

Tested on: HaCaT cells
Assay: Apoptosis assay (FITC Annexin V/PI) of UV- or X-ray-irradiated HaCaT cells
Assay type: cell-based, human
Details: UV 50 mJ/cm^2, 48 hours
Source text: A. Test Sample Pretreatment and Irradiation Treatment

| SMILES | Apoptosis percentage (%) (125 μg/mL pretreatment) | Apoptosis percentage (%) (250 μg/mL pretreatment) |
| --- | --- | --- |
| O=c1c(O[C@@H]2O[C@H](CO)[C@@H](O)[C@H](O)[C@H]2O)c(-c2ccc(O)cc2)oc2cc(O)cc(O)c12 [astragalin] | 22.37 ± 3.32 | 69.07 ± 5.07 |
| O=c1cc(-c2ccc(O)cc2)oc2c([C@@H]3O[C@H](CO)[C@@H](O)[C@H](O)[C@H]3O)c(O)cc(O)c12 [vitexin] | 20.00 ± 0.73 | 70.93 ± 1.52 |
